Values of other authors in patent US8679552B2, “Acne vulgaris treatment regimen” (priority 2008, dated 2014).
One block for each molecule: values may come before it.

What was measured:
comedones = conditions: topical
type-1 5 alpha-reductase = molecular target: T1, type-1 5 alpha-reductase (Homo sapiens, UniProt P18405)
T1 sequence (P18405 1-259): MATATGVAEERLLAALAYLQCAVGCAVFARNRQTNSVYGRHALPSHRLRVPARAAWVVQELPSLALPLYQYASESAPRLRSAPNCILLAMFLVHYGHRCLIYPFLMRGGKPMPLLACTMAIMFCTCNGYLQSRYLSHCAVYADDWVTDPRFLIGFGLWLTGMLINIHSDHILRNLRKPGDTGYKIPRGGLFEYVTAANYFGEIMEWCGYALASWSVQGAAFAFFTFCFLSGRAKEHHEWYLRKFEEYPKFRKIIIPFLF

5 alpha-reductase [1] = tested on: 5 alpha-reductase
skin irritation = conditions: concentrations of 5%, three to four week period
[2] = tested on: 17-beta-hydroxysteroid dehydrogenase
5 alpha-reductase [3] = tested on: 5 alpha-reductase; remark: listed apart in the source

Molecule: O=C(O)c1ccccc1O [salicylic acid, Salicylic acid]
comedolytic effect (comedones; concentrations of 0.5% to 2.0%): moderately comedolytic

Molecule: [Zn+2] [Zinc cation]
inhibition of 5 alpha-reductase enzyme activity at high concentrations (5 alpha-reductase [1]; high concentrations): completely inhibiting the enzyme activity

Molecule: CC(C)(CO)[C@@H](O)C(=O)NCCCO [dexpanthenol]
symptoms of skin irritation (dryness, roughness, scaling, pruritis, erythema, erosion/fissures) (skin irritation): considerably improves

Molecule: CC1=C(/C=C/C(C)=C/C=C/C(C)=C/C=O)C(C)(C)CCC1 [Retinaldehyde]
in vitro antibacterial activity against gram-positive bacteria (gram-positive bacteria): significant in vitro antibacterial activity | effectiveness at preventing comedones (comedones; concentration of 0.1%): as effective at preventing comedones as other topical vitamin A products

Molecule: O=c1c(O)c(-c2ccc(O)c(O)c2)oc2cc(O)cc(O)c12 [quercitin]
inhibition of type-1 5 alpha-reductase (type-1 5 alpha-reductase): potent inhibitors

Molecule: Cc1ncc(CO)c(CO)c1O.Cl [Vitamin B6, Pyridoxine hydrochloride]
increase in the inhibition of 5 alpha-reductase (5 alpha-reductase [1]; Vitamin B6 (0.025%) added to zinc sulfate (1.5 to 3 milliMolar/liter)): two fold increase

Molecule: epigallocatechin 3-gallate [EGCG]
inhibition of 5 alpha-reductase in cell-free assay systems (5 alpha-reductase [1]; cell-free): potent inhibition | inhibition of 5 alpha-reductase in whole-cell assay systems (5 alpha-reductase [3]): not in whole-cell assay systems

Molecule: O=C1c2ccccc2C(=O)c2c1ccc(O)c2O [alizarin]
inhibition of type-1 5 alpha-reductase (type-1 5 alpha-reductase): potent inhibitors

Molecule: Oc1ccc2c(O)c3ccccc3cc2c1O [anthrarobin]
inhibition of type-1 5 alpha-reductase (type-1 5 alpha-reductase): potent inhibitors

Further lines, results first:

inhibition of type-1 5 alpha-reductase (type-1 5 alpha-reductase): potent inhibitors
Molecule: O=c1c(O)c(-c2ccc(O)c(O)c2)oc2cc(O)ccc12 [fisetin]

inhibition of type-1 5 alpha-reductase (type-1 5 alpha-reductase): potent inhibitors
Molecule: O=C(/C=C/c1ccc(O)c(O)c1)OCCc1ccccc1 [caffeic acid phenethyl ester]

concentration at which effective / potent 5 alpha-reductase inhibitor (5 alpha-reductase [1]): ≥ 0.2 milliMolar | concentration that is completely inhibitory of 5 alpha-reductase (5 alpha-reductase [1]): 3 milliMolar
Molecule: O=C(O)CCCCCCCC(=O)O [Azelaic acid]

inhibition of type-1 5 alpha-reductase (type-1 5 alpha-reductase): potent inhibitors
Molecule: O=c1cc(-c2ccccc2)oc2cc(O)c(O)c(O)c12 [baicalein]

5 alpha-reductase inhibitory activity (5 alpha-reductase [1]): most potent inhibitor
Molecule: O=C1OC[C@H](Cc2cccc(O)c2)[C@H]1Cc1cccc(O)c1 [enterolactone]

inhibition of type-1 5 alpha-reductase (type-1 5 alpha-reductase): potent inhibitors
Molecule: CCCCCCCCOC(=O)c1cc(O)c(O)c(O)c1 [octyl gallate]

concentration which suppresses 17-beta-hydroxysteroid dehydrogenase activity [2]: ≥ 4 microMolar
Molecule: CC1(C)[C@@H](O)CC[C@]2(C)[C@H]3C(=O)C=C4[C@@H]5C[C@@](C)(C(=O)O)CC[C@]5(C)CC[C@@]4(C)[C@]3(C)CC[C@@H]12 [glycyrrhetinic acid]

inhibition of type-1 5 alpha-reductase (type-1 5 alpha-reductase): potent inhibitors
Molecule: CCCCCCCCCCCCOC(=O)c1cc(O)c(O)c(O)c1 [lauryl gallate]

inhibition of type-1 5 alpha-reductase (type-1 5 alpha-reductase): potent inhibitors
Molecule: CC(Cc1ccc(O)c(O)c1)C(C)Cc1ccc(O)c(O)c1 (stereo not drawn) [nordihydroguaiaretic acid]
